According to BindingDB's records for doi:10.1111/j.1747-0285.2005.00317.x (Abbott Laboratories, 2006):

Target: T1, UDP-N-acetylmuramoyl-tripeptide--D-alanyl-D-alanine ligase (Streptococcus pneumoniae (strain ATCC BAA-255 / R6), UniProt Q8DNV6)
T1 sequence (Q8DNV6 whole entry): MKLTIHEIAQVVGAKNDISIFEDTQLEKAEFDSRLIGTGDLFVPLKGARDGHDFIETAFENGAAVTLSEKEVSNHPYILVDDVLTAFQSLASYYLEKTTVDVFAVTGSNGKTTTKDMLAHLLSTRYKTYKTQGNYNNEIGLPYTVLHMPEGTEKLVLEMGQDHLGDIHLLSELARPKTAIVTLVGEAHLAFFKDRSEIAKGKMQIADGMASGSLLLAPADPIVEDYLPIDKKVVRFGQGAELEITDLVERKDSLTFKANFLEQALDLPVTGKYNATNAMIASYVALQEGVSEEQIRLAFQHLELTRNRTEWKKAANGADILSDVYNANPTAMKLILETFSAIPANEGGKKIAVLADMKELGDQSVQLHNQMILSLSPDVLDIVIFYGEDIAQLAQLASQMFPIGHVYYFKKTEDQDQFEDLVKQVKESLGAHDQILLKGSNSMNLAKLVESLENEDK
Test: Inhibition Assay
Text: Inhibition of D-Ala-D-Ala adding enzyme (MurF) from Streptococcus pneumoniase.

With `N#Cc1c(NC(=O)c2cc(S(=O)(=O)C3CCOCC3)ccc2Cl)sc2c1CCC2` [MurF inhibitor, 3] the IC50 was 9 µM.
`N#Cc1c(NC(=O)c2cc(S(=O)(=O)NCCCCO)ccc2Cl)sc2c1CCC2` [MurF inhibitor, 4] showed an IC50 of 22 µM.
`N#Cc1c(NC(=O)c2cc(S(=O)(=O)N3CCCCC3)ccc2Cl)sc2c1CCCC2` [MurF inhibitor, 5] was tested, and the IC50 was 2.5 µM.
Molecule `N#Cc1c(NC(=O)c2cc(S(N)(=O)=O)ccc2Cl)sc2c1CCC2` [MurF inhibitor, 6] has an IC50 of 78 µM.
Work on `CCN(CC)S(=O)(=O)c1ccc(Cl)c(C(=O)Nc2sccc2C#N)c1` [MurF inhibitor, 12] yielded an IC50 of 151 µM.
For `CCN(CC)S(=O)(=O)c1ccc(Cl)c(C(=O)Nc2sc(Br)cc2C#N)c1` [MurF inhibitor, 13], the IC50 was 12.6 µM.
In the case of `N#Cc1cc(CCc2ccccn2)sc1NC(=O)c1cc(S(=O)(=O)N2CCOCC2)ccc1Cl` [MurF inhibitor, 14], the IC50 is reported as 6 µM.
Molecule `CCN(CC)S(=O)(=O)c1cc(C(=O)Nc2sc3c(c2C#N)CCC(c2ccc(O)cc2)C3)c(Cl)cc1Cl` (stereo not drawn) [MurF inhibitor, 15] has an IC50 of 0.07 µM.
